# Laboratory results: ChEMBL document CHEMBL1201862, “PubChem BioAssay data set” (2004)
#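 Tested at 5 concentrations; 48 h exposure; 96-well plates; endpoints linearly interpolated, else capped at highest concentration. GI50 is the concentration that inhibits growth by half.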 Activity calls are given as the source filed them. Cut-off read from the data, not from the text of the source: active = GI50 up to about 1.1 µM and inactive = higher.
# Legend:
# Assay in all cases: growth of human tumour cells (NCI), 48 h
# UACC-62 = tested on: UACC-62
# DU-145 = tested on: DU-145
# UO-31 = tested on: UO-31
# Hs-578T = tested on: Hs-578T
# NCI-H522 = tested on: NCI-H522
# NCI-H23 = tested on: NCI-H23
# SNB-19 = tested on: SNB-19
# HOP-62 = tested on: HOP-62
# MOLT-4 = tested on: MOLT-4
# KM12 = tested on: KM12
# HCT-15 = tested on: HCT-15
# SW-620 = tested on: SW-620
# 786-0 = tested on: 786-0
# TK-10 = tested on: TK-10
# MCF7 = tested on: MCF7
# CCRF-CEM = tested on: CCRF-CEM
# PC-3 = tested on: PC-3
# NCI/ADR-RES = tested on: NCI/ADR-RES
# SF-268 = tested on: SF-268
# Malme-3M = tested on: Malme-3M
SMILES,GI50 (UACC-62),GI50 (DU-145),GI50 (UO-31),GI50 (Hs-578T),GI50 (NCI-H522),GI50 (NCI-H23),GI50 (SNB-19),GI50 (HOP-62),GI50 (MOLT-4),GI50 (KM12),GI50 (HCT-15) [µM],GI50 (SW-620),GI50 (786-0),GI50 (TK-10),GI50 (MCF7),GI50 (CCRF-CEM),GI50 (PC-3),GI50 (NCI/ADR-RES),GI50 (SF-268),GI50 (Malme-3M)
COc1ccc(C2CC(=O)Oc3ccccc3O2)cc1 (configuration not stated),> 100 µM (inactive),> 100 µM (inactive),88.5 µM (inactive),66.7 µM (inactive),32.1 µM (inactive),> 100 µM (inactive),> 100 µM (inactive),> 100 µM (inactive),> 100 µM (inactive),> 100 µM (inactive),> 100,> 100 µM (inactive),> 100 µM (inactive),> 100 µM (inactive),> 100 µM (inactive),52.8 µM (inactive),> 100 µM (inactive),> 100 µM (inactive),> 100 µM (inactive),–
CC(=O)c1cc2c(Br)cccc2oc1=O,> 100 µM (inactive),> 100 µM (inactive),–,> 100 µM (inactive),> 100 µM (inactive),> 100 µM (inactive),> 100 µM (inactive),> 100 µM (inactive),> 100 µM (inactive),–,> 100,> 100 µM (inactive),> 100 µM (inactive),> 100 µM (inactive),> 100 µM (inactive),> 100 µM (inactive),> 100 µM (inactive),> 100 µM (inactive),95.5 µM (inactive),> 100 µM (inactive)
C[n+]1c2ccccc2c2/c(=C\C#N)c3ccccc3n21,10.7 µM (inactive),6.75 µM (inactive),12.6 µM (inactive),4.21 µM (inactive),–,5.11 µM (inactive),5.24 µM (inactive),2.84 µM (inactive),3.54 µM (inactive),3.61 µM (inactive),28.4,3.07 µM (inactive),3.5 µM (inactive),1.69 µM (inactive),2.16 µM (inactive),3.66 µM (inactive),2.86 µM (inactive),32 µM (inactive),6.27 µM (inactive),2.53 µM (inactive)
COc1ccccc1C1(c2c(OC(C)C)c(=O)c2=O)SCCCS1,> 100 µM (inactive),> 100 µM (inactive),> 100 µM (inactive),> 100 µM (inactive),65.9 µM (inactive),> 100 µM (inactive),> 100 µM (inactive),> 100 µM (inactive),> 100 µM (inactive),> 100 µM (inactive),> 100,> 100 µM (inactive),> 100 µM (inactive),> 100 µM (inactive),> 100 µM (inactive),40.5 µM (inactive),> 100 µM (inactive),> 100 µM (inactive),> 100 µM (inactive),–
O=C1CC(NC(=O)C(F)(F)F)c2c(Br)sc(N3CCC(c4ccccc4)CC3)c21 (configuration not stated),20.4 µM (inactive),22.2 µM (inactive),8.77 µM (inactive),20 µM (inactive),7.94 µM (inactive),6.7 µM (inactive),20.8 µM (inactive),–,4.68 µM (inactive),> 100 µM (inactive),25.1,43.4 µM (inactive),20.8 µM (inactive),19 µM (inactive),18.7 µM (inactive),4.05 µM (inactive),25.6 µM (inactive),69 µM (inactive),43.4 µM (inactive),> 100 µM (inactive)
CN(C)C=O.O=C(Nc1nnn[nH]1)c1nc(O)cc(-c2ccccc2)n1,> 100 µM (inactive),> 100 µM (inactive),> 100 µM (inactive),> 100 µM (inactive),> 100 µM (inactive),> 100 µM (inactive),> 100 µM (inactive),> 100 µM (inactive),> 100 µM (inactive),> 100 µM (inactive),> 100,> 100 µM (inactive),> 100 µM (inactive),> 100 µM (inactive),> 100 µM (inactive),–,> 100 µM (inactive),> 100 µM (inactive),> 100 µM (inactive),> 100 µM (inactive)
CC/C(=C\c1ccc(Cl)c(Cl)c1)[N+](=O)[O-],1.93 µM (inactive),1.86 µM (inactive),1.88 µM (inactive),3.48 µM (inactive),1.72 µM (inactive),2.34 µM (inactive),2.36 µM (inactive),2.96 µM (inactive),0.236 µM (active),2.96 µM (inactive),1.66,3.03 µM (inactive),1.59 µM (inactive),1.94 µM (inactive),1.15 µM (inactive),–,2.23 µM (inactive),2.27 µM (inactive),2.03 µM (inactive),1.92 µM (inactive)
COC(=O)NN=C(c1ccc(Cl)cc1)c1ccc(Cl)cc1,> 100 µM (inactive),80.7 µM (inactive),> 100 µM (inactive),> 100 µM (inactive),> 100 µM (inactive),> 100 µM (inactive),> 100 µM (inactive),–,> 100 µM (inactive),> 100 µM (inactive),> 100,> 100 µM (inactive),> 100 µM (inactive),54.2 µM (inactive),> 100 µM (inactive),67.6 µM (inactive),> 100 µM (inactive),> 100 µM (inactive),> 100 µM (inactive),> 100 µM (inactive)
CCc1cc(O)c(Cl)c(C)c1Cl,15.1 µM (inactive),16.7 µM (inactive),19.1 µM (inactive),17.8 µM (inactive),11.7 µM (inactive),19 µM (inactive),30.3 µM (inactive),18.7 µM (inactive),–,15.2 µM (inactive),17.4,21.9 µM (inactive),17.1 µM (inactive),18.2 µM (inactive),23.2 µM (inactive),18.2 µM (inactive),19.5 µM (inactive),21.7 µM (inactive),20.9 µM (inactive),19.4 µM (inactive)
COC(=O)C(CC(C)C)NC(=O)C(NC(=O)c1ccc(-c2ccc(Cl)cc2Cl)o1)C(C)C (configuration not stated),13.1 µM (inactive),21.8 µM (inactive),29 µM (inactive),27.5 µM (inactive),23.2 µM (inactive),22.5 µM (inactive),30.5 µM (inactive),21.4 µM (inactive),12.9 µM (inactive),20.8 µM (inactive),20.7,28.8 µM (inactive),16.1 µM (inactive),27.4 µM (inactive),16.5 µM (inactive),12.2 µM (inactive),14.1 µM (inactive),18.7 µM (inactive),22 µM (inactive),–
CCCCCC(C)SC1(C(=O)OC)CC(OC(C)=O)C(NC(C)=O)C([C@H](OC(C)=O)[C@@H](COC(C)=O)OC(C)=O)O1 (some centres not stated),–,> 100 µM (inactive),38.5 µM (inactive),29.4 µM (inactive),51.2 µM (inactive),> 100 µM (inactive),> 100 µM (inactive),> 100 µM (inactive),27.3 µM (inactive),66.7 µM (inactive),34.5,> 100 µM (inactive),47 µM (inactive),> 100 µM (inactive),43.7 µM (inactive),–,67.3 µM (inactive),> 100 µM (inactive),> 100 µM (inactive),44.1 µM (inactive)
CC1=CCC(=O)[C@]2(C)C(CC(=O)O)[C@]3(C)C4=C(C)C(c5ccoc5)C[C@@H]4O[C@@H]3[C@H](O)[C@@H]12 (some centres not stated),> 100 µM (inactive),> 100 µM (inactive),> 100 µM (inactive),> 100 µM (inactive),> 100 µM (inactive),> 100 µM (inactive),> 100 µM (inactive),–,> 100 µM (inactive),> 100 µM (inactive),> 100,> 100 µM (inactive),> 100 µM (inactive),> 100 µM (inactive),> 100 µM (inactive),> 100 µM (inactive),> 100 µM (inactive),> 100 µM (inactive),> 100 µM (inactive),> 100 µM (inactive)
CC(=O)N[C@@H](Cc1ccc(O)cn1)C(=O)NCc1cccc(F)c1,> 100 µM (inactive),> 100 µM (inactive),> 100 µM (inactive),> 100 µM (inactive),> 100 µM (inactive),> 100 µM (inactive),> 100 µM (inactive),> 100 µM (inactive),–,> 100 µM (inactive),> 100,> 100 µM (inactive),> 100 µM (inactive),> 100 µM (inactive),> 100 µM (inactive),> 100 µM (inactive),> 100 µM (inactive),> 100 µM (inactive),> 100 µM (inactive),> 100 µM (inactive)
CC12CCC(C1)C(C)(C)C2OC(=O)c1ccccc1C(=O)O (configuration not stated),> 100 µM (inactive),> 100 µM (inactive),> 100 µM (inactive),8.97 µM (inactive),> 100 µM (inactive),> 100 µM (inactive),> 100 µM (inactive),34.7 µM (inactive),> 100 µM (inactive),> 100 µM (inactive),> 100,> 100 µM (inactive),> 100 µM (inactive),> 100 µM (inactive),> 100 µM (inactive),–,> 100 µM (inactive),> 100 µM (inactive),> 100 µM (inactive),> 100 µM (inactive)
CC(CNC(=O)c1ccccc1)(CNC(=O)c1ccccc1)[N+](=O)[O-],> 100 µM (inactive),> 100 µM (inactive),23.8 µM (inactive),> 100 µM (inactive),67.1 µM (inactive),> 100 µM (inactive),7.05 µM (inactive),–,> 100 µM (inactive),> 100 µM (inactive),> 100,> 100 µM (inactive),> 100 µM (inactive),> 100 µM (inactive),> 100 µM (inactive),–,> 100 µM (inactive),> 100 µM (inactive),> 100 µM (inactive),> 100 µM (inactive)
